In US12296365B2, “Peroxyformic acid compositions for membrane filtration cleaning” (ECOLAB USA INC., priority 2015, dated 2025):

Experiments:
[1] = RO membrane compatibility soak, overall conclusion; details: 300 ppm, simulated 1 year
[2] = RO membrane compatibility soak, clean water flux and salt rejection; details: Koch HRX; 57 ppm, simulated 3 Years, soak 234 hr, 77 F
Description: In particular, the effects of PFA on reverse osmosis members which contain a polyamide structure in comparison with known control chemicals was tested. Three different membranes were tested including Koch HRX, Hydranautics CPAS and Hydranautics ESPA2+. Membranes were soaked in duplicate, in chemistries according to Table 4.
Membranes were then conditioned in Ultrasil 110 at a pH of 11 for 90 minutes at 50° C., followed by a rinse in DI water.
Each of the chemistries, with the exception of PFA was refreshed daily. PFA was refreshed hourly. After the simulated exposure the membranes are rinsed with DI water and placed on the Flat Sheet Membrane skid (Model M20). The membranes were rinsed with DI water for 24 hours at standard UF pressure and temperature. Once 24 hours was completed the membranes were subjected to alkaline conditioning step until solution pH is 11. 15.14 grams of NaCl was added to the recirculating water (2000 ppm NaCl) and the system was allowed to continue circulating. The conductivity of each permeate tube and feed was then measured and recorded and shown as percent rejection. The percent rejection was determined by (conductivity of the feed−conductivity of the permeate)/(conductivity of the feed).

Row | SMILES | flux and salt rejection results versus control (in words) [1] | Water Flux (LMH) Peracetic acid [2]
1 | O=COO [PFA, peroxyformic acid] | comparable results to that of the commercially-available control peroxyacetic acid compositions at 3 years | –
2 | CC(=O)OO [Peracetic acid] | – | 75.22 LMH
